In experiment [1] the target is Activin receptor-like kinase 1, ACVRL1 (Homo sapiens) (UniProt P37023). Description: Inhibition of ALK1.
Experiment [2] concerns the target T1, TGF-beta receptor type-1 (Homo sapiens, UniProt P36897).
T1 sequence (P36897 whole entry): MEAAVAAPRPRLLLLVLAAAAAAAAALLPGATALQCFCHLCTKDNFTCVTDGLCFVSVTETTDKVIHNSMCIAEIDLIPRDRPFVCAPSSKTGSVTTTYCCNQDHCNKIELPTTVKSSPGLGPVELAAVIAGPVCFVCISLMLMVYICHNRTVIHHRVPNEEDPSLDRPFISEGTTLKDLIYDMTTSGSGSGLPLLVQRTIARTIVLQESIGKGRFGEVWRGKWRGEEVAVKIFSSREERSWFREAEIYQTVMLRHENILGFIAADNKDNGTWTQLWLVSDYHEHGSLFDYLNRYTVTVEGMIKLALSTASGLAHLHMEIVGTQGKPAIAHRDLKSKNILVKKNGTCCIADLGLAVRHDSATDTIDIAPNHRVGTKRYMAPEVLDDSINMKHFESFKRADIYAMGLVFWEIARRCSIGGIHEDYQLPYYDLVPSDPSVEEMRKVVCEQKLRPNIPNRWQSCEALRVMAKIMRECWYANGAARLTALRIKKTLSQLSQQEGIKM
Description: Inhibition of TGFbeta receptor.

The target of experiment [3] is Platelet-derived growth factor receptor alpha (Homo sapiens, UniProt P16234). In words: Inhibition of PDGFRalpha.
Experiment [4] addresses T1, TGF-beta receptor type-1. In words: Inhibition of TGFbeta receptor in human HaCaT cells assessed as Smad phosphorylation by ELISA. Background: An ELISA detects its analyte on a solid surface through an enzyme-linked reagent.

Platelet-derived growth factor receptor alpha, sequence (P16234 whole entry): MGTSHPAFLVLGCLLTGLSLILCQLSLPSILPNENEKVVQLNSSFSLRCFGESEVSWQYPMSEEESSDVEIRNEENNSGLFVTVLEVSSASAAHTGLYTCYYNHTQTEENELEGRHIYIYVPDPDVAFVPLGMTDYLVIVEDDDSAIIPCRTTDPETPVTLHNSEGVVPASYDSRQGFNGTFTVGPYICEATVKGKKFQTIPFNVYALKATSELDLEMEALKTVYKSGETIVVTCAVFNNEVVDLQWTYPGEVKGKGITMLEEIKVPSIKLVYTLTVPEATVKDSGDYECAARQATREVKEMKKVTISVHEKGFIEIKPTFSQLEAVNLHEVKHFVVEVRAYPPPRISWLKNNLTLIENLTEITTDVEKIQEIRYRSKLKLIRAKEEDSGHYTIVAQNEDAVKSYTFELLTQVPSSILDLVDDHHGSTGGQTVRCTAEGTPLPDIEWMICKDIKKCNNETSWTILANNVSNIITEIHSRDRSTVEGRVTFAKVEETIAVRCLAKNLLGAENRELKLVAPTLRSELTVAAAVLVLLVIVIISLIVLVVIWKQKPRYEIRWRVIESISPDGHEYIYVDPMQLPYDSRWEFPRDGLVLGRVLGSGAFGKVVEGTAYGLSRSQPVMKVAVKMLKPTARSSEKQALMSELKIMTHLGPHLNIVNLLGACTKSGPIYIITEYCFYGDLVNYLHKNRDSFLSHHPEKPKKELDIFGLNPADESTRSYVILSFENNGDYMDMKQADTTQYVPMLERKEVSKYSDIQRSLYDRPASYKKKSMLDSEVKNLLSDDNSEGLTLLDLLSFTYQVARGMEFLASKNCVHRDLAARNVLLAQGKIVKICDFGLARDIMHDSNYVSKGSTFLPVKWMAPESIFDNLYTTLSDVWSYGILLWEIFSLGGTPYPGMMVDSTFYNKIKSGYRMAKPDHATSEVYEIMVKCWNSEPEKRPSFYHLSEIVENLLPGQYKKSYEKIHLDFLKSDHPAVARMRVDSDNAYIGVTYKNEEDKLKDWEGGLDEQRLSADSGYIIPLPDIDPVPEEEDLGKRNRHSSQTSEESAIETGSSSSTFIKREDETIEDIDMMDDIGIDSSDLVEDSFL
Activin receptor-like kinase 1, ACVRL1 (Homo sapiens), sequence (P37023 whole entry, looked up): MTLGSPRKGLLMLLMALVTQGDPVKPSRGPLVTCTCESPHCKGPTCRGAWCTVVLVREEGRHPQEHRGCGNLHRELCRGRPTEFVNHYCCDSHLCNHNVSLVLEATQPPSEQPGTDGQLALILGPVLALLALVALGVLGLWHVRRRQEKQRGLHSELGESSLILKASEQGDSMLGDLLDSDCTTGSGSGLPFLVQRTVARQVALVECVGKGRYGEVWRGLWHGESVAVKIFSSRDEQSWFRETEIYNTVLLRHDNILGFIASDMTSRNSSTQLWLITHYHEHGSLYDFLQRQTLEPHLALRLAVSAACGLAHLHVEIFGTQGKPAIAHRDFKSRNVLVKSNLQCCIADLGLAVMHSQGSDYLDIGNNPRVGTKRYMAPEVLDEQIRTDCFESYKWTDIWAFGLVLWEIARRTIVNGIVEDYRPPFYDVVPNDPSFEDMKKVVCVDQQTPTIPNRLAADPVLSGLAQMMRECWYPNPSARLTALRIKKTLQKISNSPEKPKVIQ

The IC50 is the midpoint of a concentration-inhibition curve. Read a low IC50 as greater potency. `CCN(C)C(=O)c1ccc2c(c1)NC(=O)/C2=C(\Nc1ccc(CN2CCCCC2)cc1)c1ccccc1`: the midpoint of inhibition in experiment [1], the IC50, lay at 4 µM.

As usually defined, the EC50 is the concentration needed to bring the measured effect to its halfway point. Take `CCN(C)C(=O)c1ccc2c(c1)NC(=O)C2C(=NC1CCCCC1)c1ccccc1` (configuration not stated) [(Z)-3-((cyclohexylamino)(phenyl)methylene)-N-ethyl-N-methyl-2-oxoindoline-6-carboxamide]: the figures for the IC50 (against TGF-beta receptor type-1 [2]; in experiment [3]) were more than 50 µM and more than 5 µM, respectively. On TGF-beta receptor type-1 [4], the EC50 is more than 10 µM.

As for `CCN(C)C(=O)c1ccc2c(c1)NC(=O)C2C(=NC1CCN(C)CC1)c1ccccc1` (configuration not stated) [(Z)-N-ethyl-N-methyl-3-((1-methylpiperidin-4-ylamino)(phenyl)methylene)-2-oxoindoline-6-carboxamide], the IC50 was more than 50 µM against TGF-beta receptor type-1 [2] and more than 5 µM in experiment [3]. For the same molecule, the concentration giving a half-maximal response (EC50) on TGF-beta receptor type-1 [4] was more than 10 µM.
